We go through 10 compounds from US20150315241A1, “Antibiotic Peptides” (priority 2007, published 2015).

Values after ≈ are worked out from the molar mass of the structure shown. Like-named read-outs stand apart in the source and are kept apart here. Where a SMILES comes first, the peptide text is derived from it. [ ]: non-standard residue; d: D form. Hyp = O=C(O)[C@@H]1C[C@@H](O)CN1; Cit = NC(=O)NCCC[C@H](N)C(=O)O; Ac6c = NC1(C(=O)O)CCCCC1; Orn = NCCC[C@H](N)C(=O)O; βAla = NCCC(=O)O

The subject of one assay is E. coli BL 21 AI. Briefly: Growth inhibition assay (MIC). It counts as cell-based, Escherichia coli. As to conditions: 1% TSB, 37° C., 20 hrs. How it is done: (§1) The minimal inhibition concentrations (MIC) of the apidaecin-derived peptides and peptide-derivatives were determined by a growth inhibition assay using a serial peptide dilution in sterilized round-bottom 96-well plates (polystyrene, U-bottom, Greiner Bio-One GmbH) with a final volume of 100 μL per well. The bacteria, e.g., E. coli BL21 A1, were grown in nutrient broth (NB, Carl Roth GmbH+Co. KG, Karlsruhe, Germany) at 37° C. over night. To each well of the 96-well plate, 50 μL of the overnight culture adjusted to 5×10^6 CFU/mL in 1% TSB were added. Lyophilized peptides and peptidomimetics were dissolved in 1% TSB (tryptic soy broth) or water to give a final concentration of 250 μg/mL. Fifty μL of the peptide or peptidomimetics solution were added to the first well of a row on the plate and mixed. Fifty μL of the first well containing the peptide solution were transferred to the second well, mixed and again 50 μL transferred to the next well and so on. Thereby, a two-fold dilution series was obtained starting at 250 μg/mL in the first well down to 120 ng/mL in the 12th well of a row giving a final peptide or peptidomimetics concentration from 125 μg/mL (well 1) to 60 ng/mL (well 12). Plates were incubated at 37° C. for 20 hrs. The absorbance was measured at 595 nm using a TECAN micro plate spectrophotometer (Tecan, Germany). All peptides and peptidomimetics were measured in triplicates. Sterilized water was used as a negative control.
(§2) The bacteria strains were tested: • Eschericha coli 1103, 10233, BL 21 AI, DC 2, • Klebsiella pneumoniae 681, • Micrococcus luteus ATCC 10240, • Mycobacterium vaccae • Bactillus subtillis 347.

A further assay deals with M. luteus ATCC 10240. It counts as cell-based, Micrococcus luteus. How it is done:
as §1, §2

As for `CC[C@H](C)[C@H](NC(=O)[C@H](Cc1ccc(O)cc1)NC(=O)[C@@H](NC(=O)[C@@H]1CCCN1C(=O)[C@H](CCCNC(=N)N)NC(=O)[C@H](CC(N)=O)NC(=O)[C@H](CC(N)=O)NC(=O)CN)C(C)C)C(=O)N1CCC[C@H]1C(=O)N[C@@H](CCC(N)=O)C(=O)N1CCC[C@H]1C(=O)N[C@@H](CCCNC(=N)N)C(=O)N1CCC[C@H]1C(=O)N1CCC[C@H]1C(=O)N[C@@H](Cc1c[nH]cn1)C(=O)N1CCC[C@H]1C(=O)N[C@@H](CCCNC(=N)N)C(=O)N[C@H](CC(C)C)C(N)=O` [compound 77] (H-GNNRPVYIPQPRPPHPR[dL]-NH2), in the assay with E. coli BL 21 AI, the “MIC E. coli BL 21 AI” value is more than 125 µg/mL. For the same compound, the “MIC M. luteus ATCC 10240” value against M. luteus ATCC 10240 (ATCC 10240, 20 h) is 31.25 µg/mL (≈ 14.8 µM).
As to `CC[C@H](C)[C@H](NC(=O)[C@H](Cc1ccc(O)cc1)NC(=O)[C@@H](NC(=O)[C@@H]1CCCN1C(=O)[C@H](CCCNC(=N)N)NC(=O)[C@H](CC(N)=O)NC(=O)[C@H](CC(N)=O)NC(=O)CN)C(C)C)C(=O)N1CCC[C@H]1C(=O)N[C@@H](CCC(N)=O)C(=O)N1CCC[C@H]1C(=O)N[C@@H](CCCNC(=N)N)C(=O)N1CCC[C@H]1C(=O)N1CCC[C@H]1C(=O)N[C@@H](Cc1c[nH]cn1)C(=O)N1CCC[C@H]1C(=O)N[C@@H](CCCNC(=N)N)C(=O)NCCC(N)=O` [compound 79] (H-GNNRPVYIPQPRPPHPR[βAla]-NH2), the “MIC E. coli BL 21 AI” value with E. coli BL 21 AI was more than 125 µg/mL. Also, in the assay on M. luteus ATCC 10240 (ATCC 10240, 20 h), the “MIC M. luteus ATCC 10240” value was 62.5 µg/mL (≈ 30.3 µM).
The like results for `CC[C@H](C)[C@H](NC(=O)[C@H](Cc1ccc(O)cc1)NC(=O)[C@@H](NC(=O)[C@@H]1CCCN1C(=O)[C@H](CCCNC(=N)N)NC(=O)[C@H](CC(N)=O)NC(=O)[C@H](CC(N)=O)NC(=O)CN)C(C)C)C(=O)N1CCC[C@H]1C(=O)N[C@@H](CCC(N)=O)C(=O)N1CCC[C@H]1C(=O)N[C@@H](CCCNC(=N)N)C(=O)N1CCC[C@H]1C(=O)N1CCC[C@H]1C(=O)N[C@@H](Cc1c[nH]cn1)C(=O)N1CCC[C@H]1C(=O)N[C@@H](CCCNC(=N)N)C(=O)NC1(C(N)=O)CCCCC1` [compound 80] (H-GNNRPVYIPQPRPPHPR[Ac6c]-NH2) were, in that order, more than 125 µg/mL and 15.63 µg/mL (≈ 7.37 µM).
In the case of `CC[C@H](C)[C@H](NC(=O)[C@H](CCCNC(=N)N)NC(=O)[C@@H]1CCCN1C(=O)[C@H](Cc1c[nH]cn1)NC(=O)[C@@H]1CCCN1C(=O)[C@@H]1CCCN1C(=O)[C@H](CCCNC(=N)N)NC(=O)[C@@H]1CCCN1C(=O)[C@H](CCCNC(N)=O)NC(=O)[C@@H]1CCCN1C(=O)[C@@H](NC(=O)[C@H](Cc1ccc(O)cc1)NC(=O)[C@@H](NC(=O)[C@@H]1CCCN1C(=O)[C@H](CCCNC(=N)N)NC(=O)[C@H](CC(N)=O)NC(=O)[C@H](CC(N)=O)NC(=O)CN)C(C)C)[C@@H](C)CC)C(N)=O` [compound 89] (H-GNNRPVYIP[Cit]PRPPHPRI-NH2), the “MIC E. coli BL 21 AI” value against E. coli BL 21 AI amounted to 1.95 µg/mL (≈ 0.913 µM). Further, the “MIC M. luteus ATCC 10240” value against M. luteus ATCC 10240 (1% TSB, 37° C., 20 hrs) was determined as 15.63 µg/mL (≈ 7.32 µM).
In the same order, the values of `CC[C@H](C)[C@H](NC(=O)[C@H](CCCNC(=N)N)NC(=O)[C@@H]1CCCN1C(=O)[C@H](Cc1c[nH]cn1)NC(=O)[C@@H]1CCCN1C(=O)[C@@H]1CCCN1C(=O)[C@H](CCCNC(=N)N)NC(=O)[C@@H]1C[C@@H](O)CN1C(=O)[C@H](CCCNC(N)=O)NC(=O)[C@@H]1CCCN1C(=O)[C@@H](NC(=O)[C@H](Cc1ccc(O)cc1)NC(=O)[C@@H](NC(=O)[C@@H]1CCCN1C(=O)[C@H](CCCNC(=N)N)NC(=O)[C@H](CC(N)=O)NC(=O)[C@H](CC(N)=O)NC(=O)CN)C(C)C)[C@@H](C)CC)C(N)=O` [compound 91] (H-GNNRPVYIP[Cit][Hyp]RPPHPRI-NH2) are 1.95 µg/mL (≈ 0.906 µM) and 7.81 µg/mL (≈ 3.63 µM).
As to `CC[C@H](C)[C@H](NC(=O)[C@H](Cc1ccc(O)cc1)NC(=O)[C@@H](NC(=O)[C@@H]1CCCN1C(=O)[C@H](CCCNC(=N)N)NC(=O)[C@H](CC(N)=O)NC(=O)[C@H](CC(N)=O)NC(=O)[C@@H](N)CCCN)C(C)C)C(=O)N1CCC[C@H]1C(=O)N[C@@H](CCCN)C(=O)N1C[C@H](O)C[C@H]1C(=O)N[C@@H](CCCNC(=N)N)C(=O)N1CCC[C@H]1C(=O)N1CCC[C@H]1C(=O)N[C@@H](Cc1c[nH]cn1)C(=O)N1CCC[C@H]1C(=O)N[C@@H](CCCNC(=N)N)C(=O)N[C@@H](CC(C)C)C(N)=O` [compound 102] (H-[Orn]NNRPVYIP[Orn][Hyp]RPPHPRL-NH2), the “MIC E. coli BL 21 AI” value against E. coli BL 21 AI is 1.95 µg/mL (≈ 0.9 µM). Moreover, the “MIC M. luteus ATCC 10240” value in the assay on M. luteus ATCC 10240 (1% TSB, 37° C., 20 hrs) came to 1.95 µg/mL (≈ 0.9 µM).
Take `CC[C@H](C)[C@H](NC(=O)[C@H](Cc1ccc(O)cc1)NC(=O)[C@@H](NC(=O)[C@@H]1CCCN1C(=O)[C@H](CCCNC(=N)N)NC(=O)[C@H](CC(N)=O)NC(=O)[C@H](CC(N)=O)NC(=O)[C@H](CCCN)NC(C)=O)C(C)C)C(=O)N1CCC[C@H]1C(=O)N[C@@H](CCCN)C(=O)N1C[C@H](O)C[C@H]1C(=O)N[C@@H](CCCNC(=N)N)C(=O)N1CCC[C@H]1C(=O)N1CCC[C@H]1C(=O)N[C@@H](Cc1c[nH]cn1)C(=O)N1CCC[C@H]1C(=O)N[C@@H](CCCNC(=N)N)C(=O)N[C@@H](CC(C)C)C(N)=O` [compound 103] (Ac-[Orn]NNRPVYIP[Orn][Hyp]RPPHPRL-NH2): the “MIC E. coli BL 21 AI” value in the assay with E. coli BL 21 AI turned out to be 1.95 µg/mL (≈ 0.883 µM). Further, the “MIC M. luteus ATCC 10240” value in the assay on M. luteus ATCC 10240 (1% TSB, 37° C., 20 hrs) amounted to 3.91 µg/mL (≈ 1.77 µM).
For `CC[C@H](C)[C@H](NC(=O)[C@H](Cc1ccc(O)cc1)NC(=O)[C@@H](NC(=O)[C@@H]1CCCN1C(=O)[C@H](CCCNC(=N)N)NC(=O)[C@H](CC(N)=O)NC(=O)[C@H](CC(N)=O)NC(=O)[C@@H](N)CCCN)C(C)C)C(=O)N1CCC[C@H]1C(=O)N[C@@H](CCCNC(=N)N)C(=O)N1CCC[C@H]1C(=O)N[C@@H](CCCNC(=N)N)C(=O)N1CCC[C@H]1C(=O)N1CCC[C@H]1C(=O)N[C@@H](Cc1c[nH]cn1)C(=O)N1CCC[C@H]1C(=O)N[C@@H](CCCNC(N)=O)C(=O)N[C@@H](CC(C)C)C(N)=O` [compound 138] (H-[Orn]NNRPVYIPRPRPPHP[Cit]L-NH2), in the assay with E. coli BL 21 AI, the “MIC E. coli BL 21 AI” value came out at 64 µg/mL (≈ 29.2 µM). Besides, the “MIC M. luteus ATCC 10240” value against M. luteus ATCC 10240 (ATCC 10240, 20 h) was found to be 64 µg/mL (≈ 29.2 µM).
Regarding `CC[C@H](C)[C@H](NC(=O)[C@H](Cc1ccc(O)cc1)NC(=O)[C@@H](NC(=O)[C@@H]1CCCN1C(=O)[C@H](CCCNC(=N)N)NC(=O)[C@H](CC(N)=O)NC(=O)[C@H](CC(N)=O)NC(=O)CNC(C)=O)C(C)C)C(=O)N1CCC[C@H]1C(=O)N[C@@H](CCC(N)=O)C(=O)N1CCC[C@H]1C(=O)N[C@@H](CCCNC(=N)N)C(=O)N1CCC[C@H]1C(=O)N1CCC[C@H]1C(=O)N[C@@H](Cc1c[nH]cn1)C(=O)N1CCC[C@H]1C(=O)N[C@@H](CCCNC(N)=O)C(=O)N[C@@H](CC(C)C)C(N)=O` [compound 148] (Ac-GNNRPVYIPQPRPPHP[Cit]L-NH2), the “MIC E. coli BL 21 AI” value against E. coli BL 21 AI is more than 125 µg/mL. The “MIC M. luteus ATCC 10240” value in the assay with M. luteus ATCC 10240 (ATCC 10240, 20 h) is more than 125 µg/mL.
`CC[C@H](C)[C@H](NC(=O)[C@H](Cc1ccc(O)cc1)NC(=O)[C@@H](NC(=O)[C@@H]1CCCN1C(=O)[C@H](CCCNC(=N)N)NC(=O)[C@H](CC(N)=O)NC(=O)[C@H](CC(N)=O)NC(=O)[C@H](CCCN)NC(C)=O)C(C)C)C(=O)N1CCC[C@H]1C(=O)N[C@@H](CCCNC(=N)N)C(=O)N1CCC[C@H]1C(=O)N[C@@H](CCCNC(=N)N)C(=O)N1CCC[C@H]1C(=O)N1CCC[C@H]1C(=O)N[C@@H](Cc1c[nH]cn1)C(=O)N1CCC[C@H]1C(=O)N[C@@H](CCCNC(N)=O)C(=O)N[C@@H](CC(C)C)C(N)=O` [compound 150] (Ac-[Orn]NNRPVYIPRPRPPHP[Cit]L-NH2): the “MIC E. coli BL 21 AI” value in the assay with E. coli BL 21 AI was found to be 32 µg/mL (≈ 14.3 µM). Moreover, the “MIC M. luteus ATCC 10240” value against M. luteus ATCC 10240 (ATCC 10240, 20 h) stood at 32 µg/mL (≈ 14.3 µM).
